Converted amounts (≈) assume the structure as drawn. Some results are limits rather than exact numbers.

The values below come from US5246926A, “Cephalosporin derivatives” (Beecham Group p.l.c., priority 1989, dated 1993).

In one experiment the test system is S. aureus (Oxford). Description: In vitro antibacterial activity, M.I.C. against S. aureus. In kind it is cell-based. The following applies: Staphylococcus aureus.
For a further experiment, the system named is E. coli (NCTC 10418). Description: In vitro antibacterial activity, M.I.C. against E. coli. In kind it is cell-based. The following applies: Escherichia coli, NCTC10418.

Turning to `CO/N=C(\C(=O)N[C@@H]1C(=O)N2C(C(=O)O)=C(C3CCC(=O)O3)CS[C@H]12)c1csc(N)n1` (mixture of isomers) [Example 3, Sodium (6R,7R)-7-[2-(2-Aminothiazol-4-yl)-2-(Z)-methoxyiminoacetamido]-3-[(5RS)-2-oxotetrahydrofuran-5-yl]ceph-3-em-4-carboxylate], the MIC with S. aureus (Oxford) is 1 µg/mL; in the experiment with E. coli (NCTC 10418) it was less than 0.03 µg/mL.

In the case of `Nc1nc(/C(=N/O)C(=O)N[C@@H]2C(=O)N3C(C(=O)O)=C(C4CCC(=O)O4)CS[C@H]23)cs1` (mixture of isomers) [Example 5, (6R,7R)-7-[2-(2-Aminothiazol-4-yl)-2-(Z)-hydroxyiminoacetamido]-3-[(5RS)-2-oxotetrahydrofuran-5-yl)ceph-3-em-4-carboxylic acid], the values for the MIC against S. aureus (Oxford) and against E. coli (NCTC 10418) were 0.25 µg/mL and less than 0.03 µg/mL, respectively.

As to `CO/N=C(\C(=O)N[C@@H]1C(=O)N2C(C(=O)[O-])=C(C3CCOC3=O)CS[C@H]12)c1csc(N)n1.[Na+]` (mixture of isomers) [Example 15, Sodium (6R,7R)-7-[2-(2-aminothiazol-4-yl)-2-(Z)-methoxyiminoacetamido]-3-[(3RS)-2-oxotetrahydrofuran-3-yl]ceph-3-em-4-carboxylate], the MIC stood at 4 µg/mL in the experiment on S. aureus (Oxford) and 0.25 µg/mL in the experiment on E. coli (NCTC 10418).

Regarding `CO/N=C(\C(=O)N[C@@H]1C(=O)N2C(C(=O)O)=C(C3COC(=O)C3)CS[C@H]12)c1csc(N)n1` (stereo partly shown) [Example 8], the MIC with S. aureus (Oxford) amounted to 4 µg/mL (≈ 8.56 µM); against E. coli (NCTC 10418), 32 µg/mL (≈ 68.5 µM).

Consider `Nc1nc(/C(=N/OCC(=O)O)C(=O)N[C@@H]2C(=O)N3C(C(=O)O)=C(C4CCC(=O)O4)CS[C@H]23)cs1` (stereo partly shown) [Example 10], for which the MIC in the experiment on S. aureus (Oxford) worked out at 8 µg/mL (≈ 15.6 µM); against E. coli (NCTC 10418), 0.12 µg/mL (≈ 0.235 µM).
